From patent US20250000843A1, “LIGNAN-INSPIRED COMPOUNDS, METHODS OF MAKING, AND USING THEREOF” (IOWAIBO, INC., priority 2023, published 2025)

Key:
telomerase = telomerase (Homo sapiens, UniProt O14746); experiment: Q-TRAP telomerase activity in PC3 prostate cancer cells; type: cell-based; set-up: allow the enzymatic addition of telomeric DNA repeats by endogenous telomerase; endogenous in cells; host or cells: PC3 prostate cancer cells (protein extract of lysed cell pellets); key to Significance of RTA difference vs. control: No: non-significant; Yes (*): p < 0.05; Yes (**): p < 0.01; Yes (***): p < 0.001; Yes (****): p < 0.0001; conditions: for telomerase inhibition effect: PC3 prostate cancer cell line
Experimental: The general mechanism of the Q-TRAP technique involves cellular pellets being lysed for protein extraction which is then subsequently quantified and stored under specific conditions to avoid protein degradation. Protein obtained in the process was used within 72 hours and samples were stored at 4° C. Telomerase protein extracts are then incubated with a specific oligonucleotide substrate to allow the enzymatic addition of telomeric DNA repeats by endogenous telomerase. Following the enzymatic reaction, telomerase extension products are then amplified and quantified by real-time qPCR. In real time PCR, a positive reaction is detected by accumulation of a fluorescent signal. The Ct (cycle threshold) is defined as the number of cycles required for fluorescence to cross the threshold (i.e.: exceeds background levels). […] Data are reported as relative telomerase activity (RTA). […] Telomeric repeat amplification protocol (TRAP) was modified for quantitative real-time PCR (Q-TRAP) and was used to determine the effect of dibenzyl butyl lactone derivative on telomerase activity in prostate cancer cell. The same methods as used in Example 3 were employed. The same abbreviation scheme as presented in Table 7 is used throughout this example as well.

[1] = test system: human induced pluripotent stem (iPS) cells; type: cell-based; conditions: human
Experimental: The dibenzyl butyl lactone derivative enantiomer A and B were compared to enterolactone and tested to determine toxicity using a human pluripotent stem (hPS) cell-based assay that predicts the developmental toxicity potential. […] The current study was conducted using human induced pluripotent stem (iPS) cells.
The impact of test article exposure on ornithine and cystine metabolism in human induced pluripotent stem (iPS) cells was measured for three test articles (dibenzyl butyl lactone derivative enantiomer A, dibenzyl butyl lactone derivative enantiomer B, and enterolactone) and prediction of the potential for developmental toxicity was made through application of the hPS cell-based assay. Exposure spanned a range of eight treatment levels per test article ranging from 0.03-100 μM.
The observed decrease in the o/c ratio following exposure to each test article is indicative of the potential for developmental toxicity and/or embryo lethality in vivo at or above the dTP concentration. FIGS. 15A-C show the o/c ratio of dibenzyl butyl lactone derivative enantiomer A (FIG. 15A), dibenzyl butyl lactone derivative enantiomer B (FIG. 15B), and (+/−) enterolactone (FIG. 15C). The graphs in FIGS. 15A-C show the cell viability and o/c/ ratio over concentrations of 0.03-100 μM with the straight horizontal line illustrating the developmental toxicity threshold of 0.85.

Chain of telomerase (O14746 whole entry): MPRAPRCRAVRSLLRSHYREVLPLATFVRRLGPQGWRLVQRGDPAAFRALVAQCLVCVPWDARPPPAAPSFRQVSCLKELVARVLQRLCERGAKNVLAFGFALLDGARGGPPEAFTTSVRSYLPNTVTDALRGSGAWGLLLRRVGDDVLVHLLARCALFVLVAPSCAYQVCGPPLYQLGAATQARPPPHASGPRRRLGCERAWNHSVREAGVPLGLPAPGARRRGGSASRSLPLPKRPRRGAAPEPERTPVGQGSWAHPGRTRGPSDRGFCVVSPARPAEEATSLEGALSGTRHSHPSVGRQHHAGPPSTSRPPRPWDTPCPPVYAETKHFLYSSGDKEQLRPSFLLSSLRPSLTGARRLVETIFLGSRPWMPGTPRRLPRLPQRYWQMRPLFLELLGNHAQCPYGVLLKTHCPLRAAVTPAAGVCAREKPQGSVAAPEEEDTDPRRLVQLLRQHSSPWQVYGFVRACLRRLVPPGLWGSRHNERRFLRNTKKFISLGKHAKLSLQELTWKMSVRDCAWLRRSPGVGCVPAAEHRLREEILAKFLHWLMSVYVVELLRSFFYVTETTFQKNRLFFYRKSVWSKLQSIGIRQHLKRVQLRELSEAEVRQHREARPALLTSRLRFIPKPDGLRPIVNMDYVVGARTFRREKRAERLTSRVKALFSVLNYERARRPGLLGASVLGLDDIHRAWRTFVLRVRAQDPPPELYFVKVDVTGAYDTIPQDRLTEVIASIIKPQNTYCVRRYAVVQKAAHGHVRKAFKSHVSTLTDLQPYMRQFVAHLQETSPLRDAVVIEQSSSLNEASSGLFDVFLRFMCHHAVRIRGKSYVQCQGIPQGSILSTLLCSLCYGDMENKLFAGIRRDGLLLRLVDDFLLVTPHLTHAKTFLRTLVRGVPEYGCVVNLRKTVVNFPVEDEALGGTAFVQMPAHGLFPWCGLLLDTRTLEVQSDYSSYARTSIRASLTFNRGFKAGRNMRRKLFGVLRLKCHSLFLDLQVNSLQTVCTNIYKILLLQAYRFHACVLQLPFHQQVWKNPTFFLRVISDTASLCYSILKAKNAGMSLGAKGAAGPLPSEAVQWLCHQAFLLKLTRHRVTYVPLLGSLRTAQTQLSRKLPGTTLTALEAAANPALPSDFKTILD
Chain of telomerase (O60832 whole entry partner): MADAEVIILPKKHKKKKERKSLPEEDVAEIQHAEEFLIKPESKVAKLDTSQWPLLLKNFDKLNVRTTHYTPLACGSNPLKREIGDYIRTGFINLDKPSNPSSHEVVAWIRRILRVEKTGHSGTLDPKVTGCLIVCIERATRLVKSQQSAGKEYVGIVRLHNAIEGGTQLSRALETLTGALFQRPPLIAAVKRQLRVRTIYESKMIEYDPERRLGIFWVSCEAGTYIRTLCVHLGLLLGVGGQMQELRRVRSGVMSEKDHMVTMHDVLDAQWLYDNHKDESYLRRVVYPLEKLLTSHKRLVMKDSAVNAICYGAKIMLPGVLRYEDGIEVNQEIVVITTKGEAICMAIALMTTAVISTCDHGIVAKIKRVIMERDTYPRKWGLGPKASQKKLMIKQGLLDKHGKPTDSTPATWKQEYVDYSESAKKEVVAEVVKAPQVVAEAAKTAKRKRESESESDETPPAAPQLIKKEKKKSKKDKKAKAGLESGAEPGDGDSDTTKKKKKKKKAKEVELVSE
Chain of telomerase (Q9NPE3 whole entry partner): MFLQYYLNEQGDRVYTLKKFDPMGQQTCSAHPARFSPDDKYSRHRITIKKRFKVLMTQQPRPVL
Chain of telomerase (Q9NX24 whole entry partner): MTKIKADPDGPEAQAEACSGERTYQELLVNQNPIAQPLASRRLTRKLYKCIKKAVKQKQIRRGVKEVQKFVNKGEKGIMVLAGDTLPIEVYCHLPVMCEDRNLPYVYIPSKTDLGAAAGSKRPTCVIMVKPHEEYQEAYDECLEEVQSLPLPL
Chain of telomerase (Q9NY12 whole entry partner): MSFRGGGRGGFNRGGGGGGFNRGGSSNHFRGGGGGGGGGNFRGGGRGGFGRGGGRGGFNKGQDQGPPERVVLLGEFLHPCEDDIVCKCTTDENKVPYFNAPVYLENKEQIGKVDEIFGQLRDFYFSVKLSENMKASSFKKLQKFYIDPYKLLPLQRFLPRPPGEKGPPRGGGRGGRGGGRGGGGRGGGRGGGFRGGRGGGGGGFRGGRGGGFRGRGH
Chain of telomerase (Q9BUR4 whole entry partner): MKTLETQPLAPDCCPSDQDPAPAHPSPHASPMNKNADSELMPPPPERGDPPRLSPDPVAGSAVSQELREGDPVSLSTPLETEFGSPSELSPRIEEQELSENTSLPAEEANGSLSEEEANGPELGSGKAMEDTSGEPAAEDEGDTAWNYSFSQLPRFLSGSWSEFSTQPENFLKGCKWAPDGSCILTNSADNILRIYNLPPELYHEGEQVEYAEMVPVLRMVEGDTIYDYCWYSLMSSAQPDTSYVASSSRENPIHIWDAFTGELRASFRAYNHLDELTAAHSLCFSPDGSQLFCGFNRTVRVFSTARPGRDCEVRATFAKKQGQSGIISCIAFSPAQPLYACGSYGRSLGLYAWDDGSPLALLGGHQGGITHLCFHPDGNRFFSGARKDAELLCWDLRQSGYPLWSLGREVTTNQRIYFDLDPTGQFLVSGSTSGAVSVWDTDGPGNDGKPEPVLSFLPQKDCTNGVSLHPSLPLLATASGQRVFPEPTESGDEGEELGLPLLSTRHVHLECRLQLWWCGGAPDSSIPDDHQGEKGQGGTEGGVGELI

What does the source list for `O=C1OCC(Cc2ccc3c(c2)OCO3)/C1=C\c1cccc(O)c1` (single isomer, unassigned) [Enantiomer A, 3-[(3,4-dimethoxyphenyl)cyclopentyl], 4-[(3-hydroxyphenol)methyl]oxolan-2-one]?
Telomerase Activity RTA (%) (telomerase; PC3, 2.5 μM, 24 Hours): 49.67%; Telomerase Activity RTA (%) (telomerase; PC3, 2.5 μM, 48 Hours): 21.48%; Telomerase Activity RTA (%) (telomerase; PC3, 2.5 μM, 72 Hours): 18.63%; Telomerase Activity RTA (%) (telomerase; PC3, 5 μM, 24 Hours): 44.11%; Telomerase Activity RTA (%) (telomerase; PC3, 5 μM, 48 Hours): 7.86%; Telomerase Activity RTA (%) (telomerase; PC3, 5 μM, 72 Hours): 15.77%; Telomerase Activity RTA (%) (telomerase; PC3, 10 μM, 24 Hours): 20.76%; Telomerase Activity RTA (%) (telomerase; PC3, 10 μM, 48 Hours): 3.60%; Telomerase Activity RTA (%) (telomerase; PC3, 10 μM, 72 Hours): 19.40%; Telomerase Activity RTA (%) (telomerase; PC3, 20 μM, 24 Hours): 22.61%; Telomerase Activity RTA (%) (telomerase; PC3, 20 μM, 48 Hours): 2.51%; Telomerase Activity RTA (%) (telomerase; PC3, 20 μM, 72 Hours): 5.20%; Telomerase Activity RTA (%) (telomerase; PC3, 40 μM, 24 Hours): 29.78%; Telomerase Activity RTA (%) (telomerase; PC3, 40 μM, 48 Hours): 6.23%; Telomerase Activity RTA (%) (telomerase; PC3, 40 μM, 72 Hours): 1.48%; IC50 (telomerase; PC3, 24 h): 5.18 µM; telomerase activity levels of treated groups compared to control (telomerase; PC3, 24 hours): lower telomerase activity levels compared to control; Significance of RTA difference vs. control (telomerase; PC3, 24 hours, 2.5 μM): No; Significance of RTA difference vs. control (telomerase; PC3, 24 hours, 5 μM): Yes (*) (Yes (*): p < 0.05); Significance of RTA difference vs. control (telomerase; PC3, 24 hours, 10 μM): Yes (**) (Yes (**): p < 0.01); Significance of RTA difference vs. control (telomerase; PC3, 24 hours, 20 μM): Yes (***) (Yes (***): p < 0.001); Significance of RTA difference vs. control (telomerase; PC3, 24 hours, 40 μM): Yes (**) (Yes (**): p < 0.01); IC50 (telomerase; PC3, 48 h): 4.71 µM; telomerase activity levels of treated groups compared to control (telomerase; PC3, 48 hours): lower telomerase activity levels compared to control; Significance of RTA difference vs. control (telomerase; PC3, 48 hours, 2.5 μM): No; Significance of RTA difference vs. control (telomerase; PC3, 48 hours, 5 μM): Yes (*) (Yes (*): p < 0.05); Significance of RTA difference vs. control (telomerase; PC3, 48 hours, 10 μM): Yes (**) (Yes (**): p < 0.01); Significance of RTA difference vs. control (telomerase; PC3, 48 hours, 20 μM): Yes (**) (Yes (**): p < 0.01); Significance of RTA difference vs. control (telomerase; PC3, 48 hours, 40 μM): Yes (*) (Yes (*): p < 0.05); IC50 (telomerase; PC3, 72 h): 18.7 µM; telomerase activity levels of treated groups compared to control (telomerase; PC3, 72 hours): lower telomerase activity levels compared to control; Significance of RTA difference vs. control (telomerase; PC3, 72 hours, 2.5 μM): No; Significance of RTA difference vs. control (telomerase; PC3, 72 hours, 5 μM): Yes (*) (Yes (*): p < 0.05); Significance of RTA difference vs. control (telomerase; PC3, 72 hours, 10 μM): No; Significance of RTA difference vs. control (telomerase; PC3, 72 hours, 20 μM): Yes (*) (Yes (*): p < 0.05); Significance of RTA difference vs. control (telomerase; PC3, 72 hours, 40 μM): Yes (**) (Yes (**): p < 0.01); telomerase inhibition effect (telomerase): exhibits a telomerase inhibition effect in a PC3 prostate cancer cell line that is more prolonged throughout all time points; TP Concentration [1]: 34.8 µM; TP concentration, fold lower than (+/−) enterolactone TP [1]: 4-6 fold; dTP Concentration [1]: 21.4 µM; dTP and TP concentrations compared with anti-cancer drugs tested in this assay [1]: higher than >90% of the anti-cancer drugs; fold difference between dTP and TP [1]: ≤ 3 fold; similarity of dTP concentrations between all three compounds [1]: ≤ 2 fold

What does the source list for `O=C1OCC(Cc2ccc3c(c2)OCO3)/C1=C\c1cccc(O)c1` (single isomer, unassigned) [Enantiomer B, 3-[(3,4-dimethoxyphenyl)cyclopentyl], 4-[(3-hydroxyphenol)methyl]oxolan-2-one]?
Telomerase Activity RTA (%) (telomerase; PC3, 2.5 μM, 24 Hours): 48.73%; Telomerase Activity RTA (%) (telomerase; PC3, 2.5 μM, 48 Hours): 126.77%; Telomerase Activity RTA (%) (telomerase; PC3, 2.5 μM, 72 Hours): 13.05%; Telomerase Activity RTA (%) (telomerase; PC3, 5 μM, 24 Hours): 36.48%; Telomerase Activity RTA (%) (telomerase; PC3, 5 μM, 48 Hours): 112.17%; Telomerase Activity RTA (%) (telomerase; PC3, 5 μM, 72 Hours): 11.67%; Telomerase Activity RTA (%) (telomerase; PC3, 10 μM, 24 Hours): 23.87%; Telomerase Activity RTA (%) (telomerase; PC3, 10 μM, 48 Hours): 102.96%; Telomerase Activity RTA (%) (telomerase; PC3, 10 μM, 72 Hours): 12.58%; Telomerase Activity RTA (%) (telomerase; PC3, 20 μM, 24 Hours): 31.05%; Telomerase Activity RTA (%) (telomerase; PC3, 20 μM, 48 Hours): 154.17%; Telomerase Activity RTA (%) (telomerase; PC3, 20 μM, 72 Hours): 7.53%; Telomerase Activity RTA (%) (telomerase; PC3, 40 μM, 24 Hours): 14.44%; Telomerase Activity RTA (%) (telomerase; PC3, 40 μM, 48 Hours): 128.83%; Telomerase Activity RTA (%) (telomerase; PC3, 40 μM, 72 Hours): 13.49%; IC50 (telomerase; PC3, 24 h): 2.99 µM; telomerase activity levels of treated groups compared to control (telomerase; PC3, 24 hours): lower telomerase activity levels compared to control; Significance of RTA difference vs. control (telomerase; PC3, 24 hours, 2.5 μM): Yes (*) (Yes (*): p < 0.05); Significance of RTA difference vs. control (telomerase; PC3, 24 hours, 5 μM): Yes (**) (Yes (**): p < 0.01); Significance of RTA difference vs. control (telomerase; PC3, 24 hours, 10 μM): Yes (**) (Yes (**): p < 0.01); Significance of RTA difference vs. control (telomerase; PC3, 24 hours, 20 μM): Yes (**) (Yes (**): p < 0.01); Significance of RTA difference vs. control (telomerase; PC3, 24 hours, 40 μM): Yes (***) (Yes (***): p < 0.001); IC50 (telomerase; PC3, 48 h): 15.4 µM; telomerase activity levels of treated groups compared to control (telomerase; PC3, 48 hours): the differences were not found to be significant; Significance of RTA difference vs. control (telomerase; PC3, 48 hours, 2.5 μM): No; Significance of RTA difference vs. control (telomerase; PC3, 48 hours, 5 μM): No; Significance of RTA difference vs. control (telomerase; PC3, 48 hours, 10 μM): No; Significance of RTA difference vs. control (telomerase; PC3, 48 hours, 20 μM): No; Significance of RTA difference vs. control (telomerase; PC3, 48 hours, 40 μM): No; IC50 (telomerase; PC3, 72 h): 2.38 µM; telomerase activity levels of treated groups compared to control (telomerase; PC3, 72 hours): without any particular differences between the treated and control groups; Significance of RTA difference vs. control (telomerase; PC3, 72 hours, 2.5 μM): No; Significance of RTA difference vs. control (telomerase; PC3, 72 hours, 5 μM): No; Significance of RTA difference vs. control (telomerase; PC3, 72 hours, 10 μM): No; Significance of RTA difference vs. control (telomerase; PC3, 72 hours, 20 μM): Yes (*) (Yes (*): p < 0.05); Significance of RTA difference vs. control (telomerase; PC3, 72 hours, 40 μM): No; telomerase inhibition effect (telomerase): exhibits a telomerase inhibition effect at 24 hours; TP Concentration [1]: 49.8 µM; TP concentration, fold lower than (+/−) enterolactone TP [1]: 4-6 fold; dTP Concentration [1]: 15.1 µM; dTP and TP concentrations compared with anti-cancer drugs tested in this assay [1]: higher than >90% of the anti-cancer drugs; similarity of dTP concentrations between all three compounds [1]: ≤ 2 fold
